Data taken from patent US20100204119A1, “4-AMINO-5-OXO-7,8-DIHYDROPYRIMIDO[5,4-F][1,4]OXAZEPIN-6(5H)-YL PHENYL DERIVATIVES” (Pfizer Inc, priority 2009, published 2010).

Molecular target: T1, Human full-length diacylglycerol:acylCoA acyltransferase 1 (DGAT-1) (Homo sapiens, UniProt O75907)
T1 sequence (O75907 1-488): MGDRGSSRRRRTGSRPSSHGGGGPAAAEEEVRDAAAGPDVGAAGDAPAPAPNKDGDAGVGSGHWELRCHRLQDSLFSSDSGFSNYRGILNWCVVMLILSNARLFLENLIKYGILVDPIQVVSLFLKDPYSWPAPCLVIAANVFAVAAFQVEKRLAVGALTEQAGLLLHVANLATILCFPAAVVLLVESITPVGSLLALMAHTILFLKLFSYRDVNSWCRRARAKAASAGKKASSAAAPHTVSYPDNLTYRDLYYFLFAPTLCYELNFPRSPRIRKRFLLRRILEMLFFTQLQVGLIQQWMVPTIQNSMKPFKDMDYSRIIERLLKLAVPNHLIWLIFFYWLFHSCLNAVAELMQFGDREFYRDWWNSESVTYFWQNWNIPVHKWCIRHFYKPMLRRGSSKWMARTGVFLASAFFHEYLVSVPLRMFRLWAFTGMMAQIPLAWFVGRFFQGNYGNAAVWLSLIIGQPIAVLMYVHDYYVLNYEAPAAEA
Test: In vitro assay for inhibition of DGAT-1 activity (DGAT 1 Reduced Microsome Multidose Assay)
Conditions: average where n > 1

[1] = Trial 4 Human IC50, Trial 4: eight concentrations of inhibitor, microsomes 5 μg/mL
[2] = Trial 1 Human IC50, Trial 1: as Trial 4 except microsomes at 25 μg/mL instead of 5 μg/mL
[3] = Trial 2 Human IC50, Trial 2: as Trial 4 except eleven concentrations of inhibitor instead of eight
[4] = Trial 3 Human IC50, Trial 3: as Trial 2 except compounds serially diluted in a different laboratory

Experimental: Human full-length diacylglycerol:acylCoA acyltransferase 1 (DGAT-1) was expressed in Sf9 insect cells which are then lysed and a crude membrane fraction (105,000×g pellet) was prepared.
Inhibitors in DMSO were pre-incubated with membranes before initiating the DGAT-1 reaction by the addition of decanoylCoA. […] The inhibitors were present at a range of eight concentrations to generate an apparent IC50 for each compound. […] Specifically, the eight concentrations used were 3 μM, 1 μM, 300 nM, 100 nM, 30 nM, 10 nM, 3 nM and 1 nM.
The reactions were allowed to proceed for 1.5 hours at room temperature and then terminated by the addition of 20 μl of EDTA (40 mM). Reaction mixture is then mixed by trituration with 30 μl of Microscint™-E (Perkin Elmer). […] Four separate trials were conducted. The method of analysis of Trial 1 was the same as Trial 4 (described above) except microsomes were utilized at 25 μg/mL instead of 5 μg/mL. The method of analysis of Trial 2 was the same as Trial 4 (described above) except eleven (11) concentrations of inhibitor were employed instead of eight (8). The method of analysis of Trial 3 was the same as Trial 2 except the compounds were serially diluted in a different laboratory.
Where this DGAT-1 inhibition assay was performed on a compound more than once, an average is provided for that compound.

| Compound | IC50 [1] [µM] | IC50 [2] [µM] | other results |
| --- | --- | --- | --- |
| C[C@@H]1CN(c2ccc(C(C)(C)CO)cc2)C(=O)c2c(N)ncnc2O1 [Example 1AQ] | 0.031 | – | – |
| C[C@@H]1CN(c2ccc(C(C)(C)C(N)=O)cc2)C(=O)c2c(N)ncnc2O1 [Example 1AR] | 0.024 | – | – |
| CC(C)(C(N)=O)c1ccc(N2CCOc3ncnc(N)c3C2=O)cc1 [Example 1D, 2-[4-(4-amino-5-oxo-7,8-dihydropyrimido[5,4-f][1,4]oxazepin-6(5H)-yl)phenyl]-2-methylpropanamide] | – | 2.75 | – |
| Nc1ncnc2c1C(=O)N(c1ccc([C@H]3CC[C@H](CCO)CC3)cc1)CCO2 [Example 1E, 4-amino-6-{4-[trans-4-(2-hydroxyethyl)cyclohexyl]phenyl}-7,8-dihydropyrimido[5,4-f][1,4]oxazepin-5(6H)-one] | – | – | IC50 [3]: 0.0141 µM; IC50 [4]: 0.00975 µM |
| CC(C)(C#N)c1ccc(N2CCOc3ncnc(N)c3C2=O)cc1 [Example 1F, 2-[4-(4-amino-5-oxo-7,8-dihydropyrimido[5,4-f][1,4]oxazepin-6(5H)-yl)phenyl]-2-methylpropanenitrile] | – | 2.12 | IC50 [3]: 1.29 µM; IC50 [4]: 2.66 µM |
| CC(C)c1ccc(N2CCOc3ncnc(N)c3C2=O)cc1 [Example 1H] | – | – | IC50 [3]: 0.0171 µM; IC50 [4]: 0.0263 µM |
| C[C@@H]1CN(c2ccc(C(C)(C)C)cc2)C(=O)c2c(N)ncnc2O1 [Example 1I, (8R)-4-amino-6-(4-tert-butylphenyl)-8-methyl-7,8-dihydropyrimido[5,4-f]-[1,4]oxazepin-5(6H)-one] | 0.0163 | – | IC50 [3]: 0.0184 µM; IC50 [4]: 0.0337 µM |
| COC(=O)c1ccc(N2C[C@@H](C)Oc3ncnc(N)c3C2=O)cc1 [Example 1J, Methyl 4-[(8R)-4-amino-8-methyl-5-oxo-7,8-dihydropyrimido[5,4-f][1,4]oxazepin-6(5H)-yl]benzoate] | 0.161 | – | – |
| CC(C)c1ccc(N2C[C@@H](C)Oc3ncnc(N)c3C2=O)cc1 [Example 1K, (8R)-4-amino-6-(4-isopropylphenyl)-8-methyl-7,8-dihydropyrimido[5,4-f]-[1,4]oxazepin-5(6H)-one] | 0.0176 | – | – |
| C[C@@H]1CN(c2ccc(C(C)(C)F)cc2)C(=O)c2c(N)ncnc2O1 [Example 1L, (8R)-4-amino-6-[4-(1-fluoro-1-methylethyl)phenyl]-8-methyl-7,8-dihydropyrimido[5,4-f][1,4]oxazepin-5(6H)-one] | 0.0461 | – | – |
| CCc1ccc(N2C[C@@H](C)Oc3ncnc(N)c3C2=O)cc1 [Example 1M, (8R)-4-amino-6-(4-ethylphenyl)-8-methyl-7,8-dihydropyrimido[5,4-f]-[1,4]oxazepin-5(6H)-one] | 0.0137 | – | – |
| COc1nc(N)c2c(n1)O[C@H](C)CN(c1ccc(C(C)(C)C)cc1)C2=O [Example 1N] | 0.0445 | – | – |
| Cc1ccc(N2C[C@@H](C)Oc3ncnc(N)c3C2=O)cc1 [Example 1P, (8R)-4-amino-8-methyl-6-(4-methylphenyl)-7,8-dihydropyrimido[5,4-f]-[1,4]oxazepin-5(6H)-one] | 0.0528 | – | – |
| C[C@@H]1CN(c2ccc([C@H]3C[C@@H](O)C3)cc2)C(=O)c2c(N)ncnc2O1 [Example 1Q] | 0.0765 | – | – |
| C[C@@H]1CN(c2ccc(C(O)C(F)(F)F)cc2)C(=O)c2c(N)ncnc2O1 (stereo partly drawn) [Example 1R] | 0.0377 | – | – |
| C[C@@H]1CN(c2ccc3c(c2)CCC3)C(=O)c2c(N)ncnc2O1 [Example 1S] | < 0.0107 | – | – |
| C[C@@H]1CN(c2ccc(C3CC3)cc2)C(=O)c2c(N)ncnc2O1 [Example 1U] | 0.0199 | – | – |
| C[C@@H]1CN(c2ccc(C(O)(C(F)(F)F)C(F)(F)F)cc2)C(=O)c2c(N)ncnc2O1 [Example 1V] | 0.0395 | – | – |
| CC(O)c1ccc(N2C[C@@H](C)Oc3ncnc(N)c3C2=O)cc1 (stereo partly drawn) [Example 1W] | 0.146 | – | – |
| COC(=O)C(C)(C)c1ccc(N2C[C@@H](C)Oc3ncnc(N)c3C2=O)cc1 [Example 1X] | 0.0325 | – | – |
| CC(C)Cc1ccc(N2C[C@@H](C)Oc3ncnc(N)c3C2=O)cc1 [Example 1Y, (8R)-4-amino-6-(4-isobutylphenyl)-8-methyl-7,8-dihydropyrimido[5,4-f]-[1,4]oxazepin-5(6H)-one] | 0.00678 | – | – |
| C[C@@H]1CN(c2ccc(C(C)(C)C(F)(F)F)cc2)C(=O)c2c(N)ncnc2O1 [Example 1Z, (8R)-4-amino-8-methyl-6-[4-(2,2,2-trifluoro-1,1-dimethylethyl)phenyl]-7,8-dihydropyrimido[5,4-f][1,4]oxazepin-5(6H)-one] | 0.0143 | – | – |
| Cc1noc(C[C@H]2CC[C@H](c3ccc(N4C[C@@H](C)Oc5ncnc(N)c5C4=O)cc3)CC2)n1 [Example 2C] | 0.0081 | – | – |

More lines, main results first:

| IC50 [1] [µM] | IC50 [2] [µM] | Compound | other results |
| --- | --- | --- | --- |
| – | 0.0547 | CCOC1CCN(C(=O)C[C@H]2CC[C@H](c3ccc(N4CCOc5ncnc(N)c5C4=O)cc3)CC2)CC1 [Example 6AB] | – |
| – | 0.178 | CN(C)C(=O)CCN(C)C(=O)C[C@H]1CC[C@H](c2ccc(N3CCOc4ncnc(N)c4C3=O)cc2)CC1 [Example 6AC] | – |
| – | 0.0421 | CC(F)(F)CN(CCO)C(=O)C[C@H]1CC[C@H](c2ccc(N3CCOc4ncnc(N)c4C3=O)cc2)CC1 [Example 6AD] | – |
| – | 0.0755 | CC1(C)C(=O)NCCN1C(=O)C[C@H]1CC[C@H](c2ccc(N3CCOc4ncnc(N)c4C3=O)cc2)CC1 [Example 6AE] | – |
| – | 0.0828 | CN(CC1COCCO1)C(=O)C[C@H]1CC[C@H](c2ccc(N3CCOc4ncnc(N)c4C3=O)cc2)CC1 (stereo partly drawn) [Example 6AF] | – |
| – | 0.0528 | CN(C(=O)C[C@H]1CC[C@H](c2ccc(N3CCOc4ncnc(N)c4C3=O)cc2)CC1)[C@H]1CCCC[C@@H]1O [Example 6AG] | – |
| – | 0.067 | CCC(C)CN(CCO)C(=O)C[C@H]1CC[C@H](c2ccc(N3CCOc4ncnc(N)c4C3=O)cc2)CC1 (stereo partly drawn) [Example 6AH] | – |
| – | 0.0804 | CC1CCCN1C(=O)C[C@H]1CC[C@H](c2ccc(N3CCOc4ncnc(N)c4C3=O)cc2)CC1 (stereo partly drawn) [Example 6AI] | – |
| – | 0.0655 | CCCN(CCO)C(=O)C[C@H]1CC[C@H](c2ccc(N3CCOc4ncnc(N)c4C3=O)cc2)CC1 [Example 6AJ] | – |
| – | 0.0181 | CN(Cc1ccc(F)cc1)C(=O)C[C@H]1CC[C@H](c2ccc(N3CCOc4ncnc(N)c4C3=O)cc2)CC1 [Example 6AK] | – |
| – | 0.105 | Nc1ncnc2c1C(=O)N(c1ccc([C@H]3CC[C@H](CC(=O)N4CCNC(=O)CC4)CC3)cc1)CCO2 [Example 6AL] | – |
| – | 0.139 | Nc1ncnc2c1C(=O)N(c1ccc([C@H]3CC[C@H](CC(=O)N4CC(F)C4)CC3)cc1)CCO2 [Example 6AM] | – |
| – | 0.0713 | CC1(CO)CCCN(C(=O)C[C@H]2CC[C@H](c3ccc(N4CCOc5ncnc(N)c5C4=O)cc3)CC2)C1 (stereo partly drawn) [Example 6AN] | – |
| – | 0.04 | N#CC1CCCN(C(=O)C[C@H]2CC[C@H](c3ccc(N4CCOc5ncnc(N)c5C4=O)cc3)CC2)C1 (stereo partly drawn) [Example 6AO] | – |
| – | 0.107 | CC1(O)CCN(C(=O)C[C@H]2CC[C@H](c3ccc(N4CCOc5ncnc(N)c5C4=O)cc3)CC2)CC1 [Example 6AP] | – |
| – | 0.0875 | CC(c1cccnc1)N(C)C(=O)C[C@H]1CC[C@H](c2ccc(N3CCOc4ncnc(N)c4C3=O)cc2)CC1 (stereo partly drawn) [Example 6AQ] | – |

| IC50 [1] [µM] | IC50 [2] [µM] | Compound | other results |
| --- | --- | --- | --- |
| – | 0.0853 | CC1(O)CCN(C(=O)C[C@H]2CC[C@H](c3ccc(N4CCOc5ncnc(N)c5C4=O)cc3)CC2)C1 (stereo partly drawn) [Example 6AR] | – |
| – | 0.0474 | CCN(Cc1nccn1C)C(=O)C[C@H]1CC[C@H](c2ccc(N3CCOc4ncnc(N)c4C3=O)cc2)CC1 [Example 6AS] | – |
| – | 0.161 | CN(C)C(=O)CN(C)C(=O)C[C@H]1CC[C@H](c2ccc(N3CCOc4ncnc(N)c4C3=O)cc2)CC1 [Example 6AT] | – |
| – | 0.0755 | CC(c1ccncc1)N(C)C(=O)C[C@H]1CC[C@H](c2ccc(N3CCOc4ncnc(N)c4C3=O)cc2)CC1 (stereo partly drawn) [Example 6AU] | – |
| – | 0.0732 | Nc1ncnc2c1C(=O)N(c1ccc([C@H]3CC[C@H](CC(=O)N4CCC4)CC3)cc1)CCO2 [Example 6AW] | – |
| – | 0.123 | Nc1ncnc2c1C(=O)N(c1ccc([C@H]3CC[C@H](CC(=O)N4CCNC(=O)C4)CC3)cc1)CCO2 [Example 6AX] | – |
| – | 0.0853 | Nc1ncnc2c1C(=O)N(c1ccc([C@H]3CC[C@H](CC(=O)N4CCCCC4CCO)CC3)cc1)CCO2 (stereo partly drawn) [Example 6AY] | – |
| – | 0.067 | Cc1cc(CN(C)C(=O)C[C@H]2CC[C@H](c3ccc(N4CCOc5ncnc(N)c5C4=O)cc3)CC2)ccn1 [Example 6AZ] | – |
| – | 0.0601 | CO[C@@H]1CCN(C(=O)C[C@H]2CC[C@H](c3ccc(N4CCOc5ncnc(N)c5C4=O)cc3)CC2)C1 [Example 6BA] | – |
| – | 0.147 | CC1C(=O)NCCN1C(=O)C[C@H]1CC[C@H](c2ccc(N3CCOc4ncnc(N)c4C3=O)cc2)CC1 (stereo partly drawn) [Example 6BB] | – |
| – | 0.0472 | C[C@@H]1COCCN1C(=O)C[C@H]1CC[C@H](c2ccc(N3CCOc4ncnc(N)c4C3=O)cc2)CC1 [Example 6BD] | – |
| – | 0.0601 | Nc1ncnc2c1C(=O)N(c1ccc([C@H]3CC[C@H](CCC(=O)N4CCOCC4)CC3)cc1)CCO2 [Example 6BF] | – |
| 1.67 | – | C[C@@H]1CN(c2ccc(C(=O)N(C)C)cc2)C(=O)c2c(N)ncnc2O1 [Example 6BG] | – |
| – | 0.103 | CN(CC1CCOCC1)C(=O)C[C@H]1CC[C@H](c2ccc(N3CCOc4ncnc(N)c4C3=O)cc2)CC1 [Example 6D] | – |
| – | 0.0721 | CO[C@H]1CCN(C(=O)C[C@H]2CC[C@H](c3ccc(N4CCOc5ncnc(N)c5C4=O)cc3)CC2)C1 [Example 6E] | – |
